Here are results for 15 molecules from PubChem BioAssay (NCI).

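Exposure lasted 48 hours, with cells grown in 96-well plates and compounds tested at five concentrations. The concentration for 50% growth inhibition is given as GI50. TGI marks complete inhibition of growth.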 Where only a bound is given, the exact number is not on record here.

Test systems include UO-31 renal; UACC-257 melanoma; HCT-15 colon; A549 NSCLC; SN12C renal; HL-60(TB) leukemia; HOP-92 NSCLC; MDA-MB-231 breast; OVCAR-8 ovarian; HS 578T breast.
Holding throughout (assay): NCI tumour cell line growth inhibition, 48 h

In the case of `COC(=O)N/N=C(/c1nc2ccc([N+](=O)[O-])cc2[nH]c1=O)C(O)c1ccc(OC)c(OC)c1` (configuration not stated), the TGI is > 100 µM with UO-31 renal; > 100 µM in the assay on UACC-257 melanoma; > 78.4 µM in the assay on HCT-15 colon; > 100 µM in the assay with A549 NSCLC; > 100 µM in the assay on SN12C renal; > 100 µM in the assay with HL-60(TB) leukemia. In addition, the TGI in the assay on HOP-92 NSCLC, in the assay on MDA-MB-231 breast, with OVCAR-8 ovarian and in the assay with HS 578T breast was > 100 µM throughout.
On to `Cc1cc2c(cc1Cl)N1C(=O)NS(=O)(=O)N=C1NS2(=O)=O`, for which the GI50 in the assay on UO-31 renal, in the assay with UACC-257 melanoma, in the assay on HCT-15 colon, in the assay with A549 NSCLC, in the assay with SN12C renal and in the assay on HL-60(TB) leukemia was > 100 µM throughout. In addition, the GI50 in the assay with HOP-92 NSCLC, with MDA-MB-231 breast, with OVCAR-8 ovarian and in the assay on HS 578T breast was > 100 µM in each case. The TGI in the assay on UO-31 renal, in the assay with UACC-257 melanoma, in the assay with HCT-15 colon, with A549 NSCLC, in the assay with SN12C renal and in the assay with HL-60(TB) leukemia was > 100 µM each time. Besides, the TGI in the assay on HOP-92 NSCLC, with MDA-MB-231 breast, in the assay on OVCAR-8 ovarian and in the assay with HS 578T breast was > 100 µM throughout.
Regarding `COc1cc(NC(C)CCCN2C(=O)c3ccccc3C2=O)c2ncccc2c1OC` (configuration not stated), the GI50 was 36.7 µM with UO-31 renal; 40.6 µM in the assay with UACC-257 melanoma; 28.4 µM in the assay with HCT-15 colon; 33 µM in the assay with A549 NSCLC; 66.9 µM in the assay with SN12C renal; 15.2 µM in the assay with HL-60(TB) leukemia. For the same molecule, the GI50 in the assay on HOP-92 NSCLC is 18.2 µM; in the assay with MDA-MB-231 breast, 31.8 µM; in the assay on OVCAR-8 ovarian, 34.9 µM; with HS 578T breast, 24.5 µM. The TGI with UO-31 renal, in the assay on UACC-257 melanoma, in the assay with HCT-15 colon, in the assay with A549 NSCLC, with SN12C renal and in the assay with HL-60(TB) leukemia was > 100 µM each time. For the same molecule, the TGI with HOP-92 NSCLC was > 100 µM; with MDA-MB-231 breast it was > 100 µM; in the assay with OVCAR-8 ovarian, > 100 µM; in the assay on HS 578T breast, 97.3 µM.
Consider `N=C1/C(=C2\Nc3ccccc3S2)CC(=O)N1c1ccc(SC(F)F)cc1`, for which the GI50 was 7.38 µM with UO-31 renal; > 100 µM in the assay on UACC-257 melanoma; 0.347 µM with HCT-15 colon; 3.75 µM in the assay with A549 NSCLC; > 100 µM in the assay with SN12C renal; 5.02 µM in the assay with HL-60(TB) leukemia. In addition, the GI50 in the assay with MDA-MB-231 breast was 24.6 µM; with OVCAR-8 ovarian, 7.42 µM; in the assay with HS 578T breast it was 2.17 µM. Also, the TGI in the assay with UO-31 renal, with UACC-257 melanoma, in the assay on HCT-15 colon, in the assay on A549 NSCLC, in the assay with SN12C renal and in the assay on HL-60(TB) leukemia was > 100 µM throughout. Also, the TGI in the assay with MDA-MB-231 breast is > 100 µM; in the assay with OVCAR-8 ovarian, > 100 µM; with HS 578T breast, 29.2 µM.
As to `C#Cc1ccc(-n2c(/C=C/c3ccc4ccccc4c3)nc3ncccc3c2=O)cc1`, the GI50 in the assay with UO-31 renal is 3.11 µM; in the assay with HCT-15 colon, 2.91 µM; with A549 NSCLC it was 2.73 µM; in the assay on SN12C renal, 3.29 µM; in the assay on HL-60(TB) leukemia it was 1.66 µM; with HOP-92 NSCLC, 1.63 µM. In addition, the GI50 is 3.74 µM with MDA-MB-231 breast, 3.05 µM in the assay on OVCAR-8 ovarian and 7.62 µM in the assay on HS 578T breast. The TGI in the assay with UO-31 renal is > 100 µM; in the assay on HCT-15 colon it was > 100 µM; with A549 NSCLC, > 100 µM; in the assay with SN12C renal it was > 100 µM; with HL-60(TB) leukemia, 8.83 µM; with HOP-92 NSCLC, 6.89 µM. For the same molecule, the TGI in the assay with MDA-MB-231 breast, in the assay on OVCAR-8 ovarian and in the assay with HS 578T breast was > 100 µM in each case.
`O=C(O)c1cn(C2CC2)c2cc(N3CCN(Cc4ccc5ccccc5c4O)CC3)c(F)cc2c1=O`: the GI50 is 3.22 µM in the assay on HCT-15 colon; 3.29 µM with A549 NSCLC; 3.44 µM in the assay on SN12C renal; > 100 µM with HL-60(TB) leukemia; 2.15 µM with HOP-92 NSCLC; 3.41 µM in the assay with MDA-MB-231 breast. For the same molecule, the GI50 in the assay with OVCAR-8 ovarian was 3.74 µM; in the assay with HS 578T breast, 2.3 µM. Also, the TGI in the assay on HCT-15 colon is > 100 µM; in the assay on A549 NSCLC, > 100 µM; with SN12C renal it was > 100 µM; in the assay with HL-60(TB) leukemia, > 100 µM; with HOP-92 NSCLC, 5.44 µM; with MDA-MB-231 breast, > 100 µM. Moreover, the values for the TGI in the assay on OVCAR-8 ovarian and in the assay with HS 578T breast were > 100 µM and 6.9 µM, respectively.
For `c1cc2c(c(NC3=NCCN3)c1)CCCC2`, the TGI in the assay with UACC-257 melanoma, with HCT-15 colon, in the assay on A549 NSCLC, in the assay on SN12C renal, with HL-60(TB) leukemia and with HOP-92 NSCLC was > 100 µM in each case. The TGI with MDA-MB-231 breast, in the assay on OVCAR-8 ovarian and in the assay on HS 578T breast was > 100 µM throughout.
In the case of `O=C1C(Br)=CC2(C=C1Br)CCNc1c(O)c3c4c(c12)=NCCC=4C=N3`, the TGI is 0.685 µM with UO-31 renal; 0.25 µM in the assay on UACC-257 melanoma; 0.197 µM with HCT-15 colon; 3.09 µM in the assay with A549 NSCLC; 0.344 µM with SN12C renal; 0.185 µM in the assay with HOP-92 NSCLC. Besides, the values for the TGI in the assay on MDA-MB-231 breast, in the assay on OVCAR-8 ovarian and in the assay on HS 578T breast were 0.409 µM, 0.511 µM and 3.87 µM, respectively.
Take `CC(C)COC(c1ccc2c(c1)OCO2)C(C)Br` (configuration not stated): the TGI was 67.5 µM in the assay with UO-31 renal; 55.5 µM in the assay on UACC-257 melanoma; 66.1 µM in the assay with HCT-15 colon; > 100 µM in the assay on A549 NSCLC; 45 µM in the assay on SN12C renal; 68.8 µM with HOP-92 NSCLC. Further, the TGI with MDA-MB-231 breast was > 100 µM; in the assay on OVCAR-8 ovarian, > 100 µM; in the assay with HS 578T breast, 64.6 µM.
For `O=C(/C=C/c1ccccc1)OCC1=C[C@@H](O)[C@@H]2C=CO[C@@H](OC3OC(CO)C(O)C(O)C3O)[C@H]12` (some centres not stated), the TGI in the assay on UO-31 renal, with UACC-257 melanoma, in the assay on HCT-15 colon, in the assay on A549 NSCLC, in the assay on SN12C renal and with HOP-92 NSCLC was > 100 µM throughout. Also, the TGI in the assay on MDA-MB-231 breast, in the assay with OVCAR-8 ovarian and in the assay with HS 578T breast was > 100 µM each time.
Take `Cc1c(O)c(Br)c(C)c(O)c1Br` (tested in a mixture with another compound): the TGI turned out to be 3.28 µM with UO-31 renal; 3.02 µM in the assay on UACC-257 melanoma; 60 µM in the assay with A549 NSCLC; 3.22 µM in the assay on HL-60(TB) leukemia; 3.03 µM with HOP-92 NSCLC; 25.5 µM in the assay with MDA-MB-231 breast. The molecule further showed a TGI in the assay with HS 578T breast of 19.9 µM.
Regarding `Cc1cn2c(/C=C3/C(=O)Nc4ccc(Cl)cc43)c(C)nc2s1`, the GI50 was 15.6 µM in the assay with UO-31 renal; 12.9 µM in the assay with UACC-257 melanoma; < 0.0403 µM in the assay with HCT-15 colon; 1.05 µM with A549 NSCLC; 16 µM in the assay on HOP-92 NSCLC; 0.678 µM in the assay on MDA-MB-231 breast. For the same molecule, the GI50 was 2.75 µM with OVCAR-8 ovarian and 0.222 µM with HS 578T breast. Moreover, the TGI in the assay with UO-31 renal was > 100 µM; with UACC-257 melanoma it was > 100 µM; with HCT-15 colon it was > 92.8 µM; in the assay on A549 NSCLC it was > 49.1 µM; in the assay with SN12C renal, 65 µM; in the assay on HOP-92 NSCLC, 70.1 µM. The figures for the TGI with MDA-MB-231 breast, in the assay with OVCAR-8 ovarian and with HS 578T breast were 24.8 µM, 32.7 µM and 0.852 µM, respectively.
Turning to `Cc1[nH]n(-c2cccc(Cl)c2)c(=O)c1/C=C1\C=c2ccccc2=CC1=O`, the GI50 with UO-31 renal, in the assay with UACC-257 melanoma, in the assay with HCT-15 colon, in the assay with A549 NSCLC, in the assay with SN12C renal and in the assay with HL-60(TB) leukemia was > 100 µM throughout. Also, the GI50 in the assay on MDA-MB-231 breast was 36.1 µM; in the assay with OVCAR-8 ovarian, > 100 µM; in the assay on HS 578T breast, 32.6 µM. Besides, the TGI in the assay on UO-31 renal, in the assay with UACC-257 melanoma, with HCT-15 colon, in the assay on A549 NSCLC, with SN12C renal and in the assay on HL-60(TB) leukemia was > 100 µM each time. Moreover, the TGI with MDA-MB-231 breast, in the assay with OVCAR-8 ovarian and in the assay with HS 578T breast was > 100 µM each time.
For `Fc1ccc(-c2nn3c(COc4ccc(Cl)cc4Cl)nnc3s2)cc1Oc1ccccc1`, the GI50 is 30 µM in the assay with UO-31 renal; 55.4 µM with UACC-257 melanoma; 43.2 µM with HCT-15 colon; 20.7 µM in the assay on A549 NSCLC; 12.9 µM in the assay on SN12C renal; 0.254 µM with HOP-92 NSCLC. The values for the GI50 in the assay on MDA-MB-231 breast, in the assay on OVCAR-8 ovarian and with HS 578T breast were 11.6 µM, 27.8 µM and 16.4 µM, respectively. In addition, the TGI in the assay with UO-31 renal is > 100 µM; with UACC-257 melanoma it was > 100 µM; with HCT-15 colon, > 100 µM; in the assay on A549 NSCLC it was 62.2 µM; in the assay on SN12C renal it was 29.6 µM; with HOP-92 NSCLC it was 7.93 µM. In addition, the TGI in the assay on MDA-MB-231 breast was 23.8 µM; in the assay on OVCAR-8 ovarian, > 100 µM; with HS 578T breast, 47.5 µM.
Regarding `CCCCCCSc1nc(COC(=O)NC)c(COC(=O)NC)n1C`, the TGI in the assay with UO-31 renal, with UACC-257 melanoma, in the assay with HCT-15 colon, with A549 NSCLC, in the assay on SN12C renal and with HL-60(TB) leukemia was > 100 µM each time. The TGI with MDA-MB-231 breast, in the assay with OVCAR-8 ovarian and in the assay with HS 578T breast was > 100 µM each time.
